Source: patent publication US20180177147A1, “METHODS AND COMPOSITIONS FOR CULTIVATING PLANTS AND ARTIFICIAL PLANT SEEDS” (E I DU PONT DE NEMOURS AND COMPANY, priority 2014, published 2018)

Experiments:
sugarcane choplets [1] = test: Survival in synthetic soil of choplets from hardened plantlets after one-day immersion in water or hormone media; assay type: in vivo; conditions: 1-day choplet treatment, 40 planted; for % surviving: day 10 in soil; for alive @ day 10: soil, artificial growth chamber
Method: This example describes choplet growth outcomes in soil (survival; morphology) when the plantlets were hardened by various treatments such as nutrient deprivation or osmoticum exposure. The hardening protocols for the plantlets were gradual (multi-day) acclimation of the tissue to decreasing sucrose and/or to increasing polyethylene glycol 6000 (PEG-6000) in LPM. The hardening treatment was evaluated at two stages: the growth of treated plantlets transplanted to synthetic soil; and the survival of choplets from plantlets in a controlled environment.
In another study, three hardening treatments were evaluated but group C hardening treatment was modified: Group C plantlets were grown in LPM for 7 days followed by transfer every two days to a medium containing higher PEG-6000 levels until the medium content had 3% sucrose and 0.2% PEG-6000. At the end of growth in tissue culture (17 days), the plantlets were transplanted to soil.
The second test of these treated plantlets was to produce choplets and evaluate the choplets' success when transplanted to synthetic soil (Table 4). Choplets were produced from sugarcane plantlets followed by a one-day immersion in a media of water, a known plant media, or a known plant media or water containing a growth hormone, such as (6-benzylaminopurine (BAP) or gibberellins 3 (GA3)). […] Choplet preparation may comprise plantlet hardening treatment and/or media treatment after formation of a choplet.

sugarcane choplets [2] = test: Soil outcomes of unembedded and embedded (F4 paper tube artificial seed) choplets incubated in various media; assay type: in vivo; conditions: 21 hr in bathing solution, MetroMix soil
Method: This example describes the soil growth advantage conferred by the enclosure or encapsulation of sugarcane choplets in paper tubes with Parafilm™ covers at bottom and top. The choplets were from plantlets produced by a standard plantlet production process or from a hardening treatment (e.g. high CO2) in the temporary immersion Adaptis™ bioreactors. The choplets were incubated in various media. The media were sterile water; LPM; BAP=[…] prepared by solubilizing solid in dimethylsulfoxide to make 1 mg/mL stock then diluted stock solution in water (50 uL to 50 mL final volume) to prepare 1 mg/L working solution; GA3=giberellin 3 prepared by diluting commercial stock solution (1 mg/mL) in water to form a 1 mg/L working solution. The choplets were segregated into 4 groups of at least 50 choplets. Each group of choplets was weighed on a petri dish before addition of the 7 mL of bathing solution: water; LPM; BAP; and GA3. Each dish was covered and the edge was sealed with 3M Micropore™ tape. The petri dishes were secured to a nutator inside a walk-in growth chamber for 21 hr. For each choplet group, either ten (10) or twenty (20) F4 paper seed structures containing MetroMix™ soil and 200 uL water were assembled with triblock top and bottom lids. The structures were transplanted in a flat containing water-saturated MetroMix™ soil such that the top of the seed design is flush with the top of the soil surface. Encapsulating the choplet in an artificial seed provided improvement in soil survival for all media incubation groups except GA3.

[3] = hardening Group B (lowered sucrose)
[4] = choplets in F4 paper tube artificial seeds

Compound | % surviving (sugarcane choplets [1]; hardening Group A (LPM)) [%] | alive @ day 10 (sugarcane choplets [1]; hardening Group A (LPM)) | % surviving (sugarcane choplets [1]; [3]) [%] | alive @ day 10 (sugarcane choplets [1]; [3]) | % surviving (sugarcane choplets [1]; hardening Group C (PEG-6000)) [%] | alive @ day 10 (sugarcane choplets [1]; hardening Group C (PEG-6000)) | Surviving on day 6 (sugarcane choplets [2]; [4]) | Surviving on day 17 (% surviving) (sugarcane choplets [2]; [4]) [%] | Surviving on day 17 (number) (sugarcane choplets [2]; [4]) | Surviving on day 6 (sugarcane choplets [2]; unembedded choplets) | Surviving on day 17 (% surviving) (sugarcane choplets [2]; unembedded choplets) [%] | Surviving on day 17 (number) (sugarcane choplets [2]; unembedded choplets)
c1ccc(CNc2ncnc3nc[nH]c23)cc1 [BAP, 6-benzylaminopurine] | 18 | 7 | 28 | 11 | 25 | 10 | 20 | 55 | 11 | 6 | 7 | 1
C=C1C[C@]23C[C@@]1(O)CC[C@H]2[C@@]12C=C[C@H](O)[C@@](C)(C(=O)O1)[C@H]2[C@@H]3C(=O)O [GA3, gibberellins 3] | 10 | 4 | 25 | 10 | 38 | 15 | 20 | 30 | 6 | 9 | 29 | 4
